Literature values in patent US20180256623A1, “COMPOSITIONS AND METHOD FOR REGULATING ADIPOSE TISSUE LIPOLYSIS, INSULIN-RESISTANCE, AND HYPERGLYCEMIA” (University of Virginia Patent Foundation, priority 2015, published 2018).
Where two headings read alike, the source gives them in different places.

Assays:
hormone-sensitive lipase = biological target: T1, hormone-sensitive lipase (Homo sapiens, UniProt Q05469); conditions: cited from earlier work
T1 sequence (Q05469 1-1076): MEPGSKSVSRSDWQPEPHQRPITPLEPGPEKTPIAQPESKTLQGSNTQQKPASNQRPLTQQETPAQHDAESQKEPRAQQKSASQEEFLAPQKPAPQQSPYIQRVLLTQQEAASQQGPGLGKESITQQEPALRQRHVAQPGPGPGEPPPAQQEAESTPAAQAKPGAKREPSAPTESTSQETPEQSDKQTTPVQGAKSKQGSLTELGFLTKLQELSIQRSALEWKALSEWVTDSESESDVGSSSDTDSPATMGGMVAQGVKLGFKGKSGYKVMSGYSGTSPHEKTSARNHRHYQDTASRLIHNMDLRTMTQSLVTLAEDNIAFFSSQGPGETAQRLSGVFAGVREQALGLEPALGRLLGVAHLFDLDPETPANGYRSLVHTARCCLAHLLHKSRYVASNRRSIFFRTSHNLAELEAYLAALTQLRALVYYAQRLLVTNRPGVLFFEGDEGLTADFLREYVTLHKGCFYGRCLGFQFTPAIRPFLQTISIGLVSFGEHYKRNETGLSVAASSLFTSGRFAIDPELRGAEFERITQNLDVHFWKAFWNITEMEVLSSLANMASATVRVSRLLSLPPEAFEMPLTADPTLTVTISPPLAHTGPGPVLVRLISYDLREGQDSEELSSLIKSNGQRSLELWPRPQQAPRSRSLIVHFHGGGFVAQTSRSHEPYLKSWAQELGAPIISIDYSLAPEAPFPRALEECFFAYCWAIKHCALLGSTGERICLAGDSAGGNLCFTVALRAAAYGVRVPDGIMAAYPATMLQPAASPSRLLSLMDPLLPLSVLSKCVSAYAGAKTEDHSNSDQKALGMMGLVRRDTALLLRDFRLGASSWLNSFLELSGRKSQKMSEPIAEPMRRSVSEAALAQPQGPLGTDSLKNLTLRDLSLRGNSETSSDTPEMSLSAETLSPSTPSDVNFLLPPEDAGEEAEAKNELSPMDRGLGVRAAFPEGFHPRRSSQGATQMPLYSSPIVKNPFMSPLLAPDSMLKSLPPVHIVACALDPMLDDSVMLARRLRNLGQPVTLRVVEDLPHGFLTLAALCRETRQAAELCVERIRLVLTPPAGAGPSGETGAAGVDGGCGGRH

monoglyceride lipase = biological target: T2, monoglyceride lipase (Homo sapiens, UniProt Q99685); conditions: cited from earlier work
T2 sequence (Q99685 1-303): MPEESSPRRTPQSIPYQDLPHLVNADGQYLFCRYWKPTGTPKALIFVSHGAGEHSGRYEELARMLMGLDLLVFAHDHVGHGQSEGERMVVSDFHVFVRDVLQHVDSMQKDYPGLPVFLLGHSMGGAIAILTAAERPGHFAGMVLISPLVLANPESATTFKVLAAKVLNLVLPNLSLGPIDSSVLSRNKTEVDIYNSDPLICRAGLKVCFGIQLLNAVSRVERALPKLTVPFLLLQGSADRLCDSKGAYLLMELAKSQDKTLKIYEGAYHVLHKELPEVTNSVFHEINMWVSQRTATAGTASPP

PNPLA6 = biological target: T3, PNPLA6 (Homo sapiens, UniProt Q8IY17); conditions: cited from earlier work
T3 sequence (Q8IY17 1-1375): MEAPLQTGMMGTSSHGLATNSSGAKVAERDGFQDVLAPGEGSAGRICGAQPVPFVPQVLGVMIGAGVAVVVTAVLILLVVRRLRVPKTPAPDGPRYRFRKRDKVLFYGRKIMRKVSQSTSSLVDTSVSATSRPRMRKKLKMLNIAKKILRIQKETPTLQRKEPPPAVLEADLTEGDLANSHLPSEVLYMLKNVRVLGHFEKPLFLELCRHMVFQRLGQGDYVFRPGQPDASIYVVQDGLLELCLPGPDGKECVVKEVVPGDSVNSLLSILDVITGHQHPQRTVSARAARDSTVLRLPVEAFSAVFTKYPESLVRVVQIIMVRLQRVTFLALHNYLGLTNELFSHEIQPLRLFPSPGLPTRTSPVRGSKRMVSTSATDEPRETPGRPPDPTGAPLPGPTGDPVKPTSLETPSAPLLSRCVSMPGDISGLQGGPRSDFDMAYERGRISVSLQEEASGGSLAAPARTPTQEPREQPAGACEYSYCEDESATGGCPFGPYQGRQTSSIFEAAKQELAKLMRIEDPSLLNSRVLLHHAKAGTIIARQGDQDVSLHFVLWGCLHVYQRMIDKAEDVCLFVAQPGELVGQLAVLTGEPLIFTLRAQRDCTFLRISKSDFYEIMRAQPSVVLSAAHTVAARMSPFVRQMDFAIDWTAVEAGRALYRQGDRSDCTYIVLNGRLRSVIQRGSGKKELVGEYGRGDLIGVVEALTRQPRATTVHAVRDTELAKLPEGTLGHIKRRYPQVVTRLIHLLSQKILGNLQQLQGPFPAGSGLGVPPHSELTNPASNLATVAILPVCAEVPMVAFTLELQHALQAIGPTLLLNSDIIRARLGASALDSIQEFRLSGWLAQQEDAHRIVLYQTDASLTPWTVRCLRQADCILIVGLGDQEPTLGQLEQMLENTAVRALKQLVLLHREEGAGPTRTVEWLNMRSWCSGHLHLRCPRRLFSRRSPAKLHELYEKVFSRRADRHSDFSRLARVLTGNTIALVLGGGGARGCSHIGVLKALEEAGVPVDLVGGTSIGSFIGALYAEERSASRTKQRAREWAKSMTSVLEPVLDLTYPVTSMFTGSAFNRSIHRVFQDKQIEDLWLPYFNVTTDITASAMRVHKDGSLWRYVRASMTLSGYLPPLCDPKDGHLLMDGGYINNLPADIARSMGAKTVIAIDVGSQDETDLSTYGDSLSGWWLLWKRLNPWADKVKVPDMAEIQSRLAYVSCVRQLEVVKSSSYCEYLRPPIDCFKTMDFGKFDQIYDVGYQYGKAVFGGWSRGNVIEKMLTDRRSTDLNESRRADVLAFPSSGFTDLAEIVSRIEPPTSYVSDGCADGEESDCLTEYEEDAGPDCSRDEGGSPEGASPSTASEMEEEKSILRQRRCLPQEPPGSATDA

PNPLA7 = PNPLA7 (Homo sapiens, UniProt Q6ZV29); conditions: cited from earlier work
lipolysis by ATGL [1] = conditions: in vitro; cited from earlier work
[2] = tested on: white adipose tissue organ cultures; conditions: cited from earlier work
lipolysis by ATGL [3] = conditions: in vivo; cited from earlier work

Chain of PNPLA7 (Q6ZV29 whole entry, species assumed): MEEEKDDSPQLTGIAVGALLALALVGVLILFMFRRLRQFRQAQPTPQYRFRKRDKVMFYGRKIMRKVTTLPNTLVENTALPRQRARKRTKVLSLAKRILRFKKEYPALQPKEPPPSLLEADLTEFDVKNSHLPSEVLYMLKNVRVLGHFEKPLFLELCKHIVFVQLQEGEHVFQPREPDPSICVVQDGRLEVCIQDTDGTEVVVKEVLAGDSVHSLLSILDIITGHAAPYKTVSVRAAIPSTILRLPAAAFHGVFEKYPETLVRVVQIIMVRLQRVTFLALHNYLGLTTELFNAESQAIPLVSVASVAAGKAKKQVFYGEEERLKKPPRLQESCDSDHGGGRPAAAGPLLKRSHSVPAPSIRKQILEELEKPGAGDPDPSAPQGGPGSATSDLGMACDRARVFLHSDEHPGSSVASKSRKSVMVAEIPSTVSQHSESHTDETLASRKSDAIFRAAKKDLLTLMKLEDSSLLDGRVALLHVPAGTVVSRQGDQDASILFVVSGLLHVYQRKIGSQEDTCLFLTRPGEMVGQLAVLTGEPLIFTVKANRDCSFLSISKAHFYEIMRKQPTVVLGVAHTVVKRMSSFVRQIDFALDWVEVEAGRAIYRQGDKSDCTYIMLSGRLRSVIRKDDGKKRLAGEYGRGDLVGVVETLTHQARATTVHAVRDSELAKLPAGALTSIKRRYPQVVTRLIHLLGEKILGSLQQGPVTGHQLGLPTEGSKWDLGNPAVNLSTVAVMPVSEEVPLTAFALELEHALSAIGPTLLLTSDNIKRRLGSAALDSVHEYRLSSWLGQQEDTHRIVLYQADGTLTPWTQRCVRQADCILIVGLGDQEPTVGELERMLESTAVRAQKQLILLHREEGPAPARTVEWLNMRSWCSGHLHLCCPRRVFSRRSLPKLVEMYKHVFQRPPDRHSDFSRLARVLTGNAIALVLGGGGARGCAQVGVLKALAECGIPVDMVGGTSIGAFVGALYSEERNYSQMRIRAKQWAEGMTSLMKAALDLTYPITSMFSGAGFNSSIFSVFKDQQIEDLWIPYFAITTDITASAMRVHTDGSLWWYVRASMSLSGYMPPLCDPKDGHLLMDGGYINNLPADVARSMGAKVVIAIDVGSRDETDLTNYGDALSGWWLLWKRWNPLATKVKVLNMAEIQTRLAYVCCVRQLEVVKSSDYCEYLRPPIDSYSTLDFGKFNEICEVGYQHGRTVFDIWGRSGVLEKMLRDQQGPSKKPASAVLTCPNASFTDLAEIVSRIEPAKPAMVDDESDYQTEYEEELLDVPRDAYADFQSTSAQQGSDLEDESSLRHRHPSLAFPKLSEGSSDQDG

## CN(C)C(=O)Nc1cccc(-c2ccc(N(C)C)cc2)c1 [Atglistatin, N′-[4′-(dimethylamino) [1,1′-biphenyl]-3-yl]-N,N-dimethyl-urea]
hormone-sensitive lipase
  inhibition of hormone-sensitive lipase: does not inhibit
Monoglyceride lipase
  inhibition of monoglyceride lipase: does not inhibit
PNPLA6
  inhibition of PNPLA6: does not inhibit
PNPLA7
  inhibition of PNPLA7: does not inhibit
Lipolysis by ATGL [1]
  lipolysis by ATGL (fatty acid mobilization): blocks lipolysis
[2]
  lipolysis by ATGL (fatty acid mobilization): blocks lipolysis
Lipolysis by ATGL [3]
  lipolysis by ATGL (fatty acid mobilization): blocks lipolysis
